Results on eleven molecules are retold here after patent US5604242A, “Heterocyclic chemistry” (Novo Nordisk A/S, priority 1993, dated 1997).

Counter-ions that a name gives are not always drawn.

One data set has as its system [^3 H]-GABA uptake. Briefly: in vitro inhibition of [3H]-GABA uptake (method of Fjalland), rat cortical tissue homogenate. In kind it is biochemical, Male wistar rat. The conditions noted are these: 40 mM tris HCl buffer pH 7.5, 60 minutes at 30° C. As to the method: Values for in vitro inhibition of [^3 H]-GABA uptake for the invention compounds were assessed essentially by the method of Fjalland (Acta Pharmacol. Toxicol. 1978, 42, 73-76). Male wistar rat cortical tissue was gently homogenized by hand using a glass/PTFE homogenizer in 10 volumes of 0.32M sucrose. Incubation was performed in a 40 mM tris HCl buffer (pH 7.5 at 30° C.) containing […], 4 mM MgSO4, […] and 10 mM glucose, for 60 minutes at 30° C. Values for inhibition of GABA uptake for some representative compounds are recorded in Table I.

The test system of another data set is GABA uptake. The conditions noted are these: cited from earlier work; for oral activity as inhibitor of GABA uptake: Yunger et al., J.Pharm.Exp.Ther. 1984, 228, 109.
The conditions of data set [1]: background, in words; cited from earlier work.

By IC50 is commonly meant the point on the concentration scale where inhibition reaches its midpoint. A higher IC50 goes with a need for much substance. In data set [^3 H]-GABA uptake, `O=C(O)[C@@H]1CCCN(CCOCc2ccccc2-c2ccccc2)C1` [Example 4, (R)-1-(2-(2-Phenylbenzyloxy)ethyl)-3-piperidinecarboxylic acid hydrochloride] yielded an IC50 of 338 nM.
Regarding `O=C(O)C1=CCCN(CCC=C(c2ccccc2)c2ccccc2)C1` [SK&F 100330A, N-(4,4-diphenyl-3-buten-1-yl)guvacine], the “oral activity as inhibitor of GABA uptake” value (“oral activity as inhibitor” for short) with GABA uptake is recorded as “orally active inhibitors of GABA uptake”.
In the case of `O=C(O)C1CCCNC1` (stereo not drawn) [nipecotic acid, 3-piperidinecarboxylic acid], the “inhibition of GABA uptake from the synaptic cleft into presynaptic nerve terminals and glial cells” value in the data set with GABA uptake (background, in words) is “well-known and potent inhibitor of GABA uptake”. Besides, the “ability to cross the blood-brain barrier” value in data set [1] is given as “unable to cross the blood-brain barrier”.
`O=C(O)CC1CCN(CCC=C(c2ccccc2)c2ccccc2)C1` (stereo not drawn) [SK&F 100561, N-(4,4-diphenyl-3-buten-1-yl)-homo-β-proline]: the “oral activity as inhibitor” value with GABA uptake is recorded as “orally active inhibitors of GABA uptake”.
Consider `O=C(O)C1CCCN(CCC=C(c2ccccc2)c2cccs2)C1` (stereo not drawn) [SK&F 100604J, N-(4-phenyl-4-(2-thienyl)-3-buten-1-yl)nipecotic acid], for which the “oral activity as inhibitor” value with GABA uptake is on record as “orally active inhibitors of GABA uptake”.
As for `O=C(O)C1CCCN(CCC=C(c2ccccc2)c2ccccc2)C1` (stereo not drawn) [SK&F 89976A, N-(4,4-diphenyl-3-buten-1-yl)nipecotic acid], the “oral activity as inhibitor” value with GABA uptake is on record as “orally active inhibitors of GABA uptake”.
For `O=C(O)[C@@H]1CCCN(CCOCc2ccccc2Cc2ccccc2)C1` [Example 2, (R)-1-(2-(2-Benzylbenzyloxy)ethyl)-3-piperidinecarboxylic acid hydrochloride], in data set [^3 H]-GABA uptake, the IC50 is 325 nM. That is a sub-micromolar value.
On the same count and under the same terms, for `O=C(O)C1CCCN(CCOCCCc2ccccc2)C1` (stereo not drawn) [Example 1, 1-(2-(3-Phenyl-1-propyloxy)ethyl)-3-piperidinecarboxylic acid hydrochloride] the value was 4500 nM; for `O=C(O)[C@@H]1CCCN(CCOC/C(=C/c2ccccc2)c2ccccc2)C1` [Example 5, E-(R)-1-(2-((2,3-Diphenyl-2-propen-1-yl)oxy)ethyl)-3-piperidinecarboxylic acid hydrochloride], 495 nM.
For `O=C(O)[C@@H]1CCCN(CCOCc2ccc3ccccc3c2-c2ccccc2)C1` [Example 3, (R)-1-(2-((1-Phenyl-2-naphthyl)methoxy)ethyl)-3-piperidinecarboxylic acid hydrochloride], the IC50 in data set [^3 H]-GABA uptake was 6400 nM.
Same read-out and setting: for `O=C(O)[C@@H]1CCCN(CCOC/C(=C\c2ccccc2)c2ccccc2)C1` [Example 6, Z-(R)-1-(2-((2,3-Diphenyl-2-propen-1-yl)oxy)ethyl)-3-piperidinecarboxylic acid hydrochloride] the value was 2000 nM.
